IC50 data for 17 compounds are collected here from patent US10100050B2 (CHIESI FARMACEUTICI S.P.A., priority 2015, dated 2018).

Counter-ions that a name gives are not always drawn.

One test deals with T1, p38alpha (Homo sapiens, UniProt Q16539).
T1 construct: purchased Invitrogen PV3304
Put plainly: P38alpha enzyme inhibition assay (Alphascreen kinase activity assay). It counts as biochemical. The conditions noted are these: IC50 classes; 2 hours preincubation at 25° C., 250 μM ATP; read-out: p38α inhibition. Put shortly:
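p38alpha with 0.3 μg/ml ATF-2 fusion protein in HEPES pH 7.5 buffer (10 mM MgCl2, 2 mM DTT, 1% DMSO); compounds preincubated 2 h at 25° C, then 250 μM ATP added for 1 h at 25° C. Phospho-ATF2 detected by AlphaScreen luminescence with anti-phospho-ATF2 antibody; IC50 from concentration-response curves.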
(In general: Bead proximity is the source of the signal in Alpha formats.)

A further test deals with BEAS-2B cells. Put plainly: TNFα-stimulated BEAS-2B IL-8 release assay. The format is cell-based. The note with it: Homo sapiens, IC50 classes, TNF-α 10 ng/ml, 18 h, read-out: TNFα-stimulated BEAS-2B IL-8 release inhibition. The method, boiled down:
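BEAS-2B cells at 80-90% confluence were pre-incubated 1 h with p38 inhibitors, then stimulated 18 h at 37 °C with TNF-α (10 ng/ml). Supernatant IL-8 was measured by ELISA. IC50 was taken from sigmoidal variable-slope fits of % inhibition of control release.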

Test [1] deals with Peripheral Blood Mononuclear Cells (PBMCs). Put plainly: LPS-stimulated PBMC TNFα release assay. The format is cell-based. The conditions noted are these: IC50 classes; human PBMC, LPS 10 ng/ml, 18 h; read-out: LPS-stimulated PBMC TNFα release inhibition. Put shortly:
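Human PBMCs from healthy donors, adhered 3 h in serum-free RPMI, received compound for 1 h in 1% FBS medium before 10 ng/ml LPS for 18 h. Supernatant TNFα was measured by MSD; IC50 from percentage inhibition of control release, at least three separate experiments.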

T1 sequence (Q16539 whole entry): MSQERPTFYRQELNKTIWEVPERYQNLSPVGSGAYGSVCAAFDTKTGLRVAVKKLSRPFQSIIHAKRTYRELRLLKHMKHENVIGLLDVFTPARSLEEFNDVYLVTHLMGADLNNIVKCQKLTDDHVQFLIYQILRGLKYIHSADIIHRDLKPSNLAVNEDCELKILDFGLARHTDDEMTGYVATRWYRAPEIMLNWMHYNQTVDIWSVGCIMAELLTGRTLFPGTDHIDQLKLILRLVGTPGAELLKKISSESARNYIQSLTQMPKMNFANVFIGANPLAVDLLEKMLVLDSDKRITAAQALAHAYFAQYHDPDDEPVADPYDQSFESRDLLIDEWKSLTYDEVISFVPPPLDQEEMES

In the case of `COC(=O)Nc1cc(NC(=O)N[C@H]2CC[C@@H](Oc3ccc4nnc([C@]5(C)CCCN5C)n4c3)c3ccccc32)cc(C(C)(C)C)c1` [Example 46, [3-tert-Butyl-5-(3-{(1S,4R)-4-[3-((S)-1,2-dimethyl-pyrrolidin-2-yl)-[1,2,4]triazolo[4,3-a]pyridin-6-yloxy]-1,2,3,4-tetrahydro-naphthalen-1-yl}-ureido)-phenyl]-carbamic acid methyl ester], the IC50 is 1 to 10 nM at p38alpha, less than 0.3 nM in the test on BEAS-2B cells and less than 1 nM in test [1].
In the case of `COc1c(CO)cc(C(C)(C)C)cc1NC(=O)N[C@H]1CC[C@@H](Oc2ccc3nnc([C@@H]4CCCCN4C)n3c2)c2ccccc21` [Example 5, 1-(5-tert-Butyl-3-hydroxymethyl-2-methoxy-phenyl)-3-{(1S,4R)-4-[3-((S)-1-methyl-piperidin-2-yl)-[1,2,4]triazolo[4,3-a]pyridin-6-yloxy]-1,2,3,4-tetrahydro-naphthalen-1-yl}-urea], the IC50 at p38alpha was 1 to 10 nM; in the test with BEAS-2B cells, less than 0.3 nM; in test [1], less than 1 nM.
In the same order, the values of `CN1CCC[C@@]1(C)c1nnc2ccc(O[C@@H]3CC[C@H](NC(=O)Nc4cc(C(C)(C)C)ccc4CO)c4ccccc43)cn12` [Example 59, 1-(5-tert-Butyl-2-hydroxymethyl-phenyl)-3-{(1S,4R)-4-[3-((S)-1,2-dimethyl-pyrrolidin-2-yl)-[1,2,4]triazolo[4,3-a]pyridin-6-yloxy]-1,2,3,4-tetrahydro-naphthalen-1-yl}-urea] are less than 1 nM, less than 0.3 nM and less than 1 nM.
With `CN1CCC[C@@]1(C)c1nnc2ccc(O[C@@H]3CC[C@H](NC(=O)Nc4cc(C(C)(C)C)ccc4CN4CCOCC4)c4ccccc43)cn12` [Example 73, 1-(5-tert-Butyl-2-morpholin-4-ylmethyl-phenyl)-3-{(1S,4R)-4-[3-((S)-1,2-dimethyl-pyrrolidin-2-yl)-[1,2,4]triazolo[4,3-a]pyridin-6-yloxy]-1,2,3,4-tetrahydro-naphthalen-1-yl}-urea], the IC50 at p38alpha is 1 to 10 nM; in the test with BEAS-2B cells, 0.3 to 1 nM; in test [1] it was greater than 5 nM.
The corresponding values for `COc1c(NC(=O)N[C@H]2CC[C@@H](Oc3ccc4nnc(C(C)(C)N(C)C)n4c3)c3ccccc32)cc(C(C)(C)C)cc1NS(=O)(=O)C1CC1` [Example 14, Cyclopropanesulfonic acid [5-tert-butyl-3-(3-{(1S,4R)-4-[3(1-dimethylamino-1-methyl-ethyl)-[1,2,4]triazolo[4,3-a]pyridin-6-yloxy]-1,2,3,4-tetrahydro-naphthalen-1-yl}-ureido)-2-methoxy-phenyl]-amide partial formate salt] are 1 to 10 nM, less than 0.3 nM and less than 1 nM.
As for `CN1CCC[C@@]1(C)c1nnc2ccc(O[C@@H]3CC[C@H](NC(=O)Nc4cc(N5CCNCC5)cc(C(C)(C)C)c4)c4ccccc43)cn12` [Example 64, 1-(3-tert-Butyl-5-piperazin-1-yl-phenyl)-3-{(1S,4R)-4-[3-((S)-1,2-dimethyl-pyrrolidin-2-yl)-[1,2,4]triazolo[4,3-a]pyridin-6-yloxy]-1,2,3,4-tetrahydro-naphthalen-1-yl}-urea], the results for the IC50 (at p38alpha; in the test with BEAS-2B cells; in test [1]) were less than 1 nM, greater than 1 nM and greater than 5 nM, respectively.
In the same order, the values of `CCS(=O)(=O)Nc1cc(C(C)(C)C)cc(NC(=O)N[C@H]2CC[C@@H](Oc3ccc4nnc(C(C)(C)N(C)C)n4c3)c3ccccc32)c1OC` [Example 13, Ethanesulfonic acid [5-tert-butyl-3-(3-{(1S,4R)-4-[3(1-dimethylamino-1-methyl-ethyl)-[1,2,4]triazolo[4,3-a]pyridin-6-yloxy]-1,2,3,4-tetrahydro-naphthalen-1-yl}-ureido)-2-methoxy-phenyl]-amide hydrochloride salt] are 1 to 10 nM, less than 0.3 nM and less than 1 nM.
The corresponding values for `CN1CCC[C@@]1(C)c1nnc2ccc(O[C@@H]3CC[C@H](NC(=O)Nc4cc(C(=O)NCCO)cc(C(C)(C)C)c4)c4ccccc43)cn12` [Example 51, 3-tert-Butyl-5-(3-{(1S,4R)-4-[3-((S)-1,2-dimethyl-pyrrolidin-2-yl)-[1,2,4]triazolo[4,3-a]pyridin-6-yloxy]-1,2,3,4-tetrahydro-naphthalen-1-yl}-ureido)-N-(2-hydroxy-ethyl)-benzamide] are less than 1 nM, 0.3 to 1 nM and less than 1 nM.
For `C[C@H]1CCCCN1c1nnc2ccc(O[C@@H]3CC[C@H](NC(=O)Nc4cc(C(C)(C)C)ccc4CN4CCOCC4)c4ccccc43)cn12` [Example 74, 1-(5-tert-Butyl-2-morpholin-4-ylmethyl-phenyl)-3-{(1S,4R)-4-[3-((S)-2-methyl-piperidin-1-yl)-[1,2,4]triazolo[4,3-a]pyridin-6-yloxy]-1,2,3,4-tetrahydro-naphthalen-1-yl}-urea], the IC50 at p38alpha was 1 to 10 nM; in the test with BEAS-2B cells, 0.3 to 1 nM; in test [1], greater than 5 nM.
For `CN1CCCC[C@H]1c1nnc2ccc(O[C@@H]3CC[C@H](NC(=O)Nc4cc(NS(C)(=O)=O)cc(C(C)(C)C)c4)c4ccccc43)cn12` [Example 61, N-[3-tert-Butyl-5-(3-{(1S,4R)-4-[3-((S)-1-methyl-piperidin-2-yl)-[1,2,4]triazolo[4,3-a]pyridin-6-yloxy]-1,2,3,4-tetrahydro-naphthalen-1-yl}-ureido)-phenyl]-methanesulfonamide], the IC50 is less than 1 nM at p38alpha, greater than 1 nM in the test with BEAS-2B cells and 1 to 5 nM in test [1].
Take `COc1c(NC(C)=O)cc(C(C)(C)C)cc1NC(=O)N[C@H]1CC[C@@H](Oc2ccc3nnc([C@@H]4CCCCN4C)n3c2)c2ccccc21` [Example 12, N-[5-tert-Butyl-2-methoxy-3-(3-{(1S,4R)-4-[3-((S)-1-methyl-piperidin-2-yl)-[1,2,4]triazolo[4,3-a]pyridin-6-yloxy]-1,2,3,4-tetrahydro-naphthalen-1-yl}-ureido)-phenyl]-acetamide]: the IC50 on p38alpha was less than 1 nM; with BEAS-2B cells it was 0.3 to 1 nM; in test [1], 1 to 5 nM.
As to `COc1c(NC(C)=O)cc(C(C)(C)C)cc1NC(=O)N[C@H]1CC[C@@H](Oc2ccc3nnc(C(C)(C)N(C)C)n3c2)c2ccccc21` [Example 10, N-[5-tert-Butyl-3-(3-{(1S,4R)-4-[3-(1-dimethylamino-1-methyl-ethyl)-[1,2,4]triazolo[4,3-a]pyridin-6-yloxy]-1,2,3,4-tetrahydro-naphthalen-1-yl}-ureido)-2-methoxy-phenyl]-acetamide], the IC50 was 1 to 10 nM at p38alpha, less than 0.3 nM with BEAS-2B cells and less than 1 nM in test [1].
In the same order, the values of `CN(C)CCOCc1cc(NC(=O)N[C@H]2CC[C@@H](Oc3ccc4nnc([C@]5(C)CCCN5C)n4c3)c3ccccc32)cc(C(C)(C)C)c1` [Example 69] are less than 1 nM, less than 0.3 nM and greater than 5 nM.
In the same order, the values of `CN1CCC[C@@]1(C)c1nnc2ccc(O[C@@H]3CC[C@H](NC(=O)Nc4cc(CS(C)(=O)=O)cc(C(C)(C)C)c4)c4ccccc43)cn12` [Example 42, 1-(3-tert-Butyl-5-methanesulfonylmethyl-phenyl)-3-{(1S,4R)-4-[3-((S)-1,2-dimethyl-pyrrolidin-2-yl)-[1,2,4]triazolo[4,3-a]pyridin-6-yloxy]-1,2,3,4-tetrahydro-naphthalen-1-yl}-urea] are less than 1 nM, less than 0.3 nM and less than 1 nM.
In the same order, the values of `C[C@H]1CCCCN1c1nnc2ccc(O[C@@H]3CC[C@H](NC(=O)Nc4cc(CN(C)CCO)cc(C(C)(C)C)c4)c4ccccc43)cn12` [Example 68, 1-(3-tert-Butyl-5-{[(2-hydroxy-ethyl)-methyl-amino]-methyl}-phenyl)-3-{(1S,4R)-4-[3-((S)-2-methyl-piperidin-1-yl)-[1,2,4]triazolo[4,3-a]pyridin-6-yloxy]-1,2,3,4-tetrahydro-naphthalen-1-yl}-urea] are less than 1 nM, greater than 1 nM and greater than 5 nM.
Consider `CN1CCC[C@@]1(C)c1nnc2ccc(O[C@@H]3CC[C@H](NC(=O)Nc4cc(COCCN5CCOCC5)cc(C(C)(C)C)c4)c4ccccc43)cn12` [Example 72, 1-[3-tert-Butyl-5-(2-morpholin-4-yl-ethoxymethyl)-phenyl]-3-{(1S,4R)-4-[3-((S)-1,2-dimethyl-pyrrolidin-2-yl)-[1,2,4]triazolo[4,3-a]pyridin-6-yloxy]-1,2,3,4-tetrahydro-naphthalen-1-yl}-urea], for which the IC50 is less than 1 nM at p38alpha, 0.3 to 1 nM with BEAS-2B cells and greater than 5 nM in test [1].
The corresponding values for `CNC(=O)c1cc(NC(=O)N[C@H]2CC[C@@H](Oc3ccc4nnc([C@]5(C)CCCN5C)n4c3)c3ccccc32)cc(C(C)(C)C)c1` [Example 55, 3-tert-Butyl-5-(3-{(1S,4R)-4-[3-((S)-1,2-dimethyl-pyrrolidin-2-yl)-[1,2,4]triazolo[4,3-a]pyridin-6-yloxy]-1,2,3,4-tetrahydro-naphthalen-1-yl}-ureido)-N-methyl-benzamide] are less than 1 nM, less than 0.3 nM and less than 1 nM.
